19 molecules from patent US12281122B1, “PI3K inhibitors” (Cogent Biosciences, Inc., priority 2023, dated 2025) can be followed below.

The subject of assay [1] is SKBR3 (PI3Kα-Wild Type) cell line. As to the kind of experiment: HTRF phospho-AKT(S473) cell assay in SKBR3 cells. It is filed as cell-based, human. Conditions: Homo sapiens, SK-BR-3; SKBR3 (PI3Kα-Wild Type) cells, HTRF phospho-AKT(S473), 2 hours compound incubation, PDGF-BB stimulated. An outline of the steps: (§1)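 T47D: RPMI + 10% FBS + 0.2 units/mL insulin, top 5 μM. SKBR3: McCoy's 5A + 10% FBS, top 10 μM, 70 ng/ml PDGF-BB last 15 min. Both: 12-pt 1:3, 2 h, 37° C, max 0.5% DMSO; HTRF pAKT(S473); IC50.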
On the technique in general: Time-resolved FRET reads energy transfer from a long-lived donor to a nearby acceptor.

In assay [2] the test system is T47D (PI3Kα-H1047R) cell line. As to the kind of experiment: HTRF phospho-AKT(S473) cell assay in T47D cells. It is filed as cell-based, human. The settings on record: Homo sapiens; T47D (PI3Kα-H1047R) cells, HTRF phospho-AKT(S473), 2 hours compound incubation. The gist of the method:
as §1

By IC50 is commonly meant the concentration that gives 50% inhibition. Low values mean higher potency, high ones lower potency. As for `Cc1cc([C@@H](C)Nc2ccc(Cl)nc2C(=O)NS(C)(=O)=O)c2nc(C3CCN(c4cnn(C)c4)CC3)n(C)c(=O)c2c1` [Compound 227, (R)-6-chloro-3-((1-(3,6-dimethyl-2-(1-(1-methyl-1H-pyrazol-4-yl)piperidin-4-yl)-4-oxo-3,4-dihydroquinazolin-8-yl)ethyl)amino)-N-(methylsulfonyl) picolinamide], the figures for the IC50 in assay [1] and in assay [2] were 1000 to 5000 nM and < 250 nM, respectively.

With `Cc1cc([C@@H](C)Nc2ccc(Cl)nc2C(=O)NS(C)(=O)=O)c2nc(N3C[C@@H]4C[C@H]3CN4c3ccn(C)n3)n(C)c(=O)c2c1` [Compound 228, 6-chloro-3-(((R)-1-(3,6-dimethyl-2-((1S,4S)-5-(1-methyl-1H-pyrazol-3-yl)-2,5-diazabicyclo[2.2.1]heptan-2-yl)-4-oxo-3,4-dihydroquinazolin-8-yl)ethyl)amino)-N-(methylsulfonyl) picolinamide], the IC50 is 1000 to 5000 nM in assay [1] and < 250 nM in assay [2].

With `Cc1cc([C@@H](C)Nc2ccc(Cl)nc2C(=O)NS(C)(=O)=O)c2nc(N3C[C@H]4C[C@@H]3CN4c3ccn(C)n3)n(C)c(=O)c2c1` [Compound 229, 6-chloro-3-(((R)-1-(3,6-dimethyl-2-((1R,4R)-5-(1-methyl-1H-pyrazol-3-yl)-2,5-diazabicyclo[2.2.1]heptan-2-yl)-4-oxo-3,4-dihydroquinazolin-8-yl)ethyl)amino)-N-(methylsulfonyl) picolinamide], the IC50 in assay [1] is 1000 to 5000 nM; in assay [2] it was < 250 nM.

`Cc1cc([C@@H](C)Nc2ccc(Cl)nc2C(=O)NS(C)(=O)=O)c2nc(N3Cc4cn(CC(F)F)nc4C3)n(C)c(=O)c2c1` [Compound 230, (R)-6-chloro-3-((1-(2-(2-(2,2-difluoroethyl)-2,6-dihydropyrrolo[3,4-c]pyrazol-5(4H)-yl)-3,6-dimethyl-4-oxo-3,4-dihydroquinazolin-8-yl)ethyl)amino)-N-(methylsulfonyl) picolinamide]: the IC50 is 1000 to 5000 nM in assay [1] and < 250 nM in assay [2].

In the case of `Cc1cc([C@@H](C)Nc2ccc(Cl)nc2C(=O)NS(C)(=O)=O)c2nc(N3CCC(c4c(C)n[nH]c4C)CC3)n(C)c(=O)c2c1` [Compound 232, (R)-6-chloro-3-((1-(2-(4-(3,5-dimethyl-1H-pyrazol-4-yl)piperidin-1-yl)-3,6-dimethyl-4-oxo-3,4-dihydroquinazolin-8-yl)ethyl)amino)-N-(methylsulfonyl) picolinamide], the IC50 is 1000 to 5000 nM in assay [1] and < 250 nM in assay [2].

As to `Cc1cc([C@@H](C)Nc2ccc(Cl)nc2C(=O)NS(C)(=O)=O)c2nc(N3C[C@H]4C[C@@H]3CN4c3cnn(C)c3)n(C)c(=O)c2c1` [Compound 233, 6-chloro-3-(((R)-1-(3,6-dimethyl-2-((1R,4R)-5-(1-methyl-1H-pyrazol-4-yl)-2,5-diazabicyclo[2.2.1]heptan-2-yl)-4-oxo-3,4-dihydroquinazolin-8-yl)ethyl)amino)-N-(methylsulfonyl) picolinamide], the IC50 in assay [1] is 1000 to 5000 nM; in assay [2] it was < 250 nM.

For the molecule `Cc1cc([C@@H](C)Nc2ccc(Cl)nc2C(=O)NS(C)(=O)=O)c2nc(N3CCC(n4cc(-c5cccnc5)cn4)CC3)n(C)c(=O)c2c1` [Compound 234, (R)-6-chloro-3-((1-(3,6-dimethyl-4-oxo-2-(4-(4-(pyridin-3-yl)-1H-pyrazol-1-yl)piperidin-1-yl)-3,4-dihydroquinazolin-8-yl)ethyl)amino)-N-(methylsulfonyl) picolinamide], the values for the IC50 in assay [1] and in assay [2] were 1000 to 5000 nM and < 250 nM, respectively.

Take `Cc1cc([C@@H](C)Nc2ccc(Cl)nc2C(=O)NS(C)(=O)=O)c2nc(N3CCC(n4cc(-c5ccccc5)cn4)CC3)n(C)c(=O)c2c1` [Compound 235, (R)-6-chloro-3-((1-(3,6-dimethyl-4-oxo-2-(4-(4-phenyl-1H-pyrazol-1-yl)piperidin-1-yl)-3,4-dihydroquinazolin-8-yl)ethyl)amino)-N-(methylsulfonyl) picolinamide]: the IC50 in assay [1] was ≥ 5000 nM; in assay [2], 250 to 500 nM.

Take `Cc1cc([C@@H](C)Nc2ccc(Cl)nc2C(=O)NS(C)(=O)=O)c2nc(N3Cc4cn(-c5ccc(C#N)cc5)nc4C3)n(C)c(=O)c2c1` [Compound 239, (R)-6-chloro-3-((1-(2-(2-(4-cyanophenyl)-2,6-dihydropyrrolo[3,4-c]pyrazol-5(4H)-yl)-3,6-dimethyl-4-oxo-3,4-dihydroquinazolin-8-yl)ethyl)amino)-N-(methylsulfonyl) picolinamide]: the figures for the IC50 in assay [1] and in assay [2] were 1000 to 5000 nM and < 250 nM, respectively.

As to `Cc1cc([C@@H](C)Nc2ccc(Cl)nc2C(=O)NS(C)(=O)=O)c2nc(N3Cc4cnn(-c5ccc(C#N)cc5)c4C3)n(C)c(=O)c2c1` [Compound 240, (R)-6-chloro-3-((1-(2-(1-(4-cyanophenyl)-4,6-dihydropyrrolo[3,4-c]pyrazol-5(1H)-yl)-3,6-dimethyl-4-oxo-3,4-dihydroquinazolin-8-yl)ethyl)amino)-N-(methylsulfonyl) picolinamide], the figures for the IC50 in assay [1] and in assay [2] were 1000 to 5000 nM and < 250 nM, respectively.

In the case of `Cc1cc([C@@H](C)Nc2ccc(Cl)nc2C(=O)NS(C)(=O)=O)c2nc(-c3ccc(-c4cnn(C)c4)nc3)n(C)c(=O)c2c1` [Compound 241, (R)-6-chloro-3-((1-(3,6-dimethyl-2-(6-(1-methyl-1H-pyrazol-4-yl)pyridin-3-yl)-4-oxo-3,4-dihydroquinazolin-8-yl)ethyl)amino)-N-(methylsulfonyl) picolinamide], the IC50 in assay [1] was 1000 to 5000 nM; in assay [2], < 250 nM.

On to `Cc1cc([C@@H](C)Nc2ccc(Cl)nc2C(=O)NS(C)(=O)=O)c2nc(N3CCC(c4ccc(N(C)C)nc4)CC3)n(C)c(=O)c2c1` [Compound 242, (R)-6-chloro-3-((1-(2-(4-(6-(dimethylamino)pyridin-3-yl)piperidin-1-yl)-3,6-dimethyl-4-oxo-3,4-dihydroquinazolin-8-yl)ethyl)amino)-N-(methylsulfonyl) picolinamide], for which the IC50 in assay [1] is 1000 to 5000 nM; in assay [2], < 250 nM.

Consider `Cc1cc([C@@H](C)Nc2ccc(Cl)nc2C(=O)NS(C)(=O)=O)c2nc(-c3ccc(-c4ccn(C)n4)nc3)n(C)c(=O)c2c1` [Compound 243, (R)-6-chloro-3-((1-(3,6-dimethyl-2-(6-(1-methyl-1H-pyrazol-3-yl)pyridin-3-yl)-4-oxo-3,4-dihydroquinazolin-8-yl)ethyl)amino)-N-(methylsulfonyl) picolinamide], for which the IC50 in assay [1] was 1000 to 5000 nM; in assay [2] it was < 250 nM.

Regarding `Cc1cc([C@@H](C)Nc2ccc(Cl)nc2C(=O)NS(C)(=O)=O)c2nc(-c3ccc(O[C@@H]4CCN(C)CC4(F)F)nc3)n(C)c(=O)c2c1` [Compound 244, 6-chloro-3-(((R)-1-(2-(6-(((R)-3,3-difluoro-1-methylpiperidin-4-yl)oxy)pyridin-3-yl)-3,6-dimethyl-4-oxo-3,4-dihydroquinazolin-8-yl)ethyl)amino)-N-(methylsulfonyl) picolinamide], the IC50 in assay [1] was 1000 to 5000 nM; in assay [2], < 250 nM.

Regarding `Cc1cc([C@@H](C)Nc2ccc(Cl)nc2C(=O)NS(C)(=O)=O)c2nc(N3Cc4cn(-c5cnn(C)c5)nc4C3)n(C)c(=O)c2c1` [Compound 245, (R)-6-chloro-3-((1-(3,6-dimethyl-2-(2-(1-methyl-1H-pyrazol-4-yl)-2,6-dihydropyrrolo[3,4-c]pyrazol-5(4H)-yl)-4-oxo-3,4-dihydroquinazolin-8-yl)ethyl)amino)-N-(methylsulfonyl) picolinamide], the IC50 in assay [1] was 1000 to 5000 nM; in assay [2], < 250 nM.

As for `Cc1cc([C@@H](C)Nc2ccc(Cl)nc2C(=O)NS(C)(=O)=O)c2nc(N3Cc4cn(-c5cccnc5C)nc4C3)n(C)c(=O)c2c1` [Compound 246, (R)-6-chloro-3-((1-(3,6-dimethyl-2-(2-(2-methylpyridin-3-yl)-2,6-dihydropyrrolo[3,4-c]pyrazol-5(4H)-yl)-4-oxo-3,4-dihydroquinazolin-8-yl)ethyl)amino)-N-(methylsulfonyl) picolinamide], the IC50 was 1000 to 5000 nM in assay [1] and < 250 nM in assay [2].

Consider `Cc1cc([C@@H](C)Nc2ccc(Cl)nc2C(=O)NS(C)(=O)=O)c2nc(N3CCC(c4nn(C)cc4F)CC3)n(C)c(=O)c2c1` [Compound 247, (R)-6-chloro-3-((1-(2-(4-(4-fluoro-1-methyl-1H-pyrazol-3-yl)piperidin-1-yl)-3,6-dimethyl-4-oxo-3,4-dihydroquinazolin-8-yl)ethyl)amino)-N-(methylsulfonyl) picolinamide], for which the figures for the half-maximal inhibitory concentration (IC50) in assay [1] and in assay [2] were 1000 to 5000 nM and < 250 nM, respectively.

For the molecule `Cc1cc([C@@H](C)Nc2ccc(Cl)nc2C(=O)NS(C)(=O)=O)c2nc(N3CCC(c4nn(C)cc4C)CC3)n(C)c(=O)c2c1` [Compound 248, ®-6-chloro-3-((1-(2-(4-(1,4-dimethyl-1H-pyrazol-3-yl)piperidin-1-yl)-3,6-dimethyl-4-oxo-3,4-dihydroquinazolin-8-yl)ethyl)amino)-N-(methylsulfonyl) picolinamide], the values for the IC50 in assay [1] and in assay [2] were 1000 to 5000 nM and < 250 nM, respectively.

In the case of `Cc1cc([C@@H](C)Nc2ccc(Cl)nc2C(=O)NS(C)(=O)=O)c2nc(N3CCC(c4ccn(C(C)C)n4)CC3)n(C)c(=O)c2c1` [Compound 249, (R)-6-chloro-3-((1-(2-(4-(1-isopropyl-1H-pyrazol-3-yl)piperidin-1-yl)-3,6-dimethyl-4-oxo-3,4-dihydroquinazolin-8-yl)ethyl)amino)-N-(methylsulfonyl) picolinamide], the results for the 50% inhibitory concentration (IC50) in assay [1] and in assay [2] were 1000 to 5000 nM and < 250 nM, respectively.
